The values that follow come from patent US4311842A, “Cephalosporin compounds” (Yamanouchi Pharmaceutical Co., Ltd., priority 1978, dated 1982).

Holding throughout (type): cell-based
In test [1] the test system is Corynebacterium xerosis. Briefly: Antibacterial activity, minimum inhibitory concentration, Corynebacterium xerosis. An excerpt:
(§1) The antibacterial activity (the minimum inhibitory concentration) of the compounds of this invention shown by formula I is shown in the following table in comparison to those of known compounds having similar structures, 7-[2-amino-2-(2-aminothiazol-4-yl)acetamido]-3-(1-methyl-tetrazol-5-yl)thiomethyl-Δ^3 -cephem-4-carboxylic acid (Compound A) having the following formula [drawing 8] and 7-[2-amino-2-(2-aminothiazol-4-yl)acetamido]cephalosporanic acid Compound B) having the following formula; [drawing 9]

Test [2] has as its system Vibrio Hy 133. Briefly: Antibacterial activity, minimum inhibitory concentration, Vibrio Hy 133. To be noted: HY133.
Description: as §1

The subject of test [3] is Pseudomonas aeruginosa ATCC 8689. Briefly: Antibacterial activity, minimum inhibitory concentration, Pseudomonas aeruginosa ATCC 8689. To be noted: ATCC8689.
Description: as §1

Test [4] relates to Staphylococcus aureus 209P. The test is described as follows: Antibacterial activity, minimum inhibitory concentration, Staphylococcus aureus 209P.
Description: as §1

The subject of test [5] is Pseudomonas aeruginosa 99. The test is described as follows: Antibacterial activity, minimum inhibitory concentration, Pseudomonas aeruginosa 99. To be noted: Pseudomonas aeruginosa 99 (Gentamicin-resistant).
Description: as §1

For test [6], the system named is Staphylococcus aureus ATCC 6538P. The test is described as follows: Antibacterial activity, minimum inhibitory concentration, Staphylococcus aureus ATCC 6538P. To be noted: ATCC6538P.
Description: as §1

For test [7], the system named is Bacillus subtilis ATCC 6633. Briefly: Antibacterial activity, minimum inhibitory concentration, Bacillus subtilis ATCC 6633. To be noted: ATCC6633.
Description: as §1

The test system of test [8] is Proteus vulgaris OXK US. The test is described as follows: Antibacterial activity, minimum inhibitory concentration, Proteus vulgaris OXK US.
Description: as §1

Test [9] has as its system Staphylococcus aureus Oonuma. The test is described as follows: Antibacterial activity, minimum inhibitory concentration, Staphylococcus aureus Oonuma. To be noted: Staphylococcus aureus Oonuma (penicillin, Streptomycin-resistant).
Description: as §1

Test [10] relates to Salmonella enteritidis 1891. The test is described as follows: Antibacterial activity, minimum inhibitory concentration, Salmonella enteritidis 1891. To be noted: Salmonella enterica.
Description: as §1

The test system of test [11] is Pseudomonas aeruginosa NCTC 10490. Briefly: Antibacterial activity, minimum inhibitory concentration, Pseudomonas aeruginosa NCTC 10490. To be noted: NCTC10490.
Description: as §1

Test [12] relates to Proteus mirabilis IFM OM-9. The test is described as follows: Antibacterial activity, minimum inhibitory concentration, Proteus mirabilis IFM OM-9. To be noted: IFMOM9.
Description: as §1

≈ marks a conversion by molar mass, not a printed value.

For the compound `CC(=O)OCC1=C(C(=O)O)N2C(=O)C(NC(=O)C(NC(=O)c3cnc(C)cc3O)c3cscn3)C2SC1` (racemic) [Example 1, DL-7-[2-(4-hydroxy-6-methylnicotinamido)-2-(thiazol-4-yl)acetamido]-cephalosporanic acid], the MIC was 3.13 µg/mL (≈ 5.72 µM) in [1]; 0.78 µg/mL (≈ 1.42 µM) in test [2]; 25 µg/mL (≈ 45.7 µM) in test [3]; 1.56 µg/mL (≈ 2.85 µM) in [4]; 25 µg/mL (≈ 45.7 µM) in test [5]; 3.13 µg/mL (≈ 5.72 µM) in test [6]. Further, the MIC in test [7] was 3.13 µg/mL (≈ 5.72 µM); in [8], 1.56 µg/mL (≈ 2.85 µM); in [9], 6.25 µg/mL (≈ 11.4 µM); in [10], 3.13 µg/mL (≈ 5.72 µM); in [11], 1.56 µg/mL (≈ 2.85 µM); in test [12] it was 3.13 µg/mL (≈ 5.72 µM).

On to `CC(=O)OCC1=C(C(=O)O)N2C(=O)C(NC(=O)C(NC(=O)c3cnc(C)cc3O)c3csc(N)n3)C2SC1` (racemic) [Example 2, DL-7-[2-(4-hydroxy-6-methylnicotinamido)-2-(2-aminothiazol-4-yl)acetamido]cephalosporanic acid], for which the MIC was found to be 6.25 µg/mL (≈ 11.1 µM) in [1]; 0.78 µg/mL (≈ 1.39 µM) in [2]; 50 µg/mL (≈ 88.9 µM) in test [3]; 3.13 µg/mL (≈ 5.56 µM) in test [4]; 25 µg/mL (≈ 44.4 µM) in test [5]; 6.25 µg/mL (≈ 11.1 µM) in test [6]. Further, the MIC in [7] amounted to 6.25 µg/mL (≈ 11.1 µM); in test [8], 0.78 µg/mL (≈ 1.39 µM); in [9] it was 12.5 µg/mL (≈ 22.2 µM); in test [10], 0.78 µg/mL (≈ 1.39 µM); in [11], 1.56 µg/mL (≈ 2.77 µM); in test [12] it was 0.39 µg/mL (≈ 0.693 µM).

As for `CC(=O)OCC1=C(C(=O)O)N2C(=O)C(NC(=O)C(NC(=O)c3csccc3=O)c3csc(N)n3)C2SC1` (racemic) [Example 3, DL-7-[2-(2-aminothiazol-4-yl)-2-(4-oxo-4H-thiopyran-3-carboxamido)-acetamido]cephalosporanic acid], the MIC in [1] was found to be 3.13 µg/mL (≈ 5.53 µM); in test [2], 0.78 µg/mL (≈ 1.38 µM); in test [3] it was 100 µg/mL (≈ 177 µM); in test [4] it was 1.56 µg/mL (≈ 2.76 µM); in test [5], 100 µg/mL (≈ 177 µM); in test [6], 3.13 µg/mL (≈ 5.53 µM). For the same compound, the MIC in test [7] is 3.13 µg/mL (≈ 5.53 µM); in [8], 1.56 µg/mL (≈ 2.76 µM); in test [9], 6.25 µg/mL (≈ 11 µM); in [10] it was 0.39 µg/mL (≈ 0.69 µM); in test [11], 25 µg/mL (≈ 44.2 µM); in test [12], 0.78 µg/mL (≈ 1.38 µM).

As to `CC(=O)OCC1=C(C(=O)O)N2C(=O)C(NC(=O)C(NC(=O)c3csccc3=O)c3cscn3)C2SC1` (racemic) [Example 4, DL-7-[2-(4-oxo-4H-thiopyran-3-carboxamido)-2-(thiazol-4-yl)acetamido]cephalosporanic acid], the MIC worked out at 1.56 µg/mL (≈ 2.83 µM) in [1]; 0.78 µg/mL (≈ 1.42 µM) in [2]; 100 µg/mL (≈ 182 µM) in test [3]; 1.56 µg/mL (≈ 2.83 µM) in test [4]; 100 µg/mL (≈ 182 µM) in test [5]; 1.56 µg/mL (≈ 2.83 µM) in test [6]. In addition, the MIC in test [7] worked out at 1.56 µg/mL (≈ 2.83 µM); in [8] it was 3.13 µg/mL (≈ 5.68 µM); in test [9], 6.25 µg/mL (≈ 11.4 µM); in [10], 6.25 µg/mL (≈ 11.4 µM); in test [11] it was 6.25 µg/mL (≈ 11.4 µM); in test [12], 6.25 µg/mL (≈ 11.4 µM).

As for `Cn1nnnc1SCC1=C(C(=O)O)N2C(=O)C(NC(=O)C(NC(=O)c3csccc3=O)c3cscn3)C2SC1` (racemic) [Example 5, DL-7-[2-(4-oxo-4H-thiopyran-3-carboxamido)-2-(thiazol-4-yl)acetamido]-3-(1-methyltetrazol-5-yl)thiomethyl-Δ^3-cephem-4-carboxylic acid], the MIC came to 3.13 µg/mL (≈ 5.16 µM) in test [1]; 0.39 µg/mL (≈ 0.643 µM) in test [2]; 50 µg/mL (≈ 82.4 µM) in test [3]; 0.78 µg/mL (≈ 1.29 µM) in test [4]; 50 µg/mL (≈ 82.4 µM) in test [5]; 1.56 µg/mL (≈ 2.57 µM) in test [6]. The MIC turned out to be 3.13 µg/mL (≈ 5.16 µM) in test [7]; 1.56 µg/mL (≈ 2.57 µM) in test [8]; 6.25 µg/mL (≈ 10.3 µM) in [9]; 0.78 µg/mL (≈ 1.29 µM) in test [10]; 1.56 µg/mL (≈ 2.57 µM) in test [11]; 1.56 µg/mL (≈ 2.57 µM) in test [12].

On to `Cn1nnnc1SCC1=C(C(=O)O)N2C(=O)C(NC(=O)C(NC(=O)c3csccc3=O)c3csc(N)n3)C2SC1` (racemic) [Example 6, DL-7-[2-(2-aminothiazol-4-yl)-2-(4-oxo-4H-thiopyran-3-carboxyamido)acetamido]-3-(1-methyltetrazol-5-yl)thiomethyl-Δ^3-cephem-4-carboxylic acid], for which the MIC stood at 1.56 µg/mL (≈ 2.51 µM) in test [1]; 0.78 µg/mL (≈ 1.25 µM) in test [2]; 50 µg/mL (≈ 80.4 µM) in test [3]; 0.78 µg/mL (≈ 1.25 µM) in [4]; 50 µg/mL (≈ 80.4 µM) in [5]; 1.56 µg/mL (≈ 2.51 µM) in test [6]. For the same compound, the MIC in test [7] turned out to be 1.56 µg/mL (≈ 2.51 µM); in [8] it was 0.19 µg/mL (≈ 0.306 µM); in test [9], 3.13 µg/mL (≈ 5.03 µM); in test [10], 0.19 µg/mL (≈ 0.306 µM); in [11] it was 0.78 µg/mL (≈ 1.25 µM); in test [12] it was 0.09 µg/mL (≈ 0.145 µM).

As for `Cc1cc(O)c(C(=O)NC(C(=O)NC2C(=O)N3C(C(=O)O)=C(CSc4nnnn4C)CSC23)c2csc(N)n2)cn1` (racemic) [Example 7, DL-7-[2-(2-aminothiazol-4-yl)-2-(4-hydroxy-6-methylnicotinamido)acetamido]-3-(1-methyltetrazol-5-yl)thiomethyl-Δ^3-cephem-4-carboxylic acid], the MIC in [1] is 6.25 µg/mL (≈ 10.1 µM); in test [2] it was 0.78 µg/mL (≈ 1.26 µM); in test [3], 25 µg/mL (≈ 40.4 µM); in test [4], 1.56 µg/mL (≈ 2.52 µM); in [5], 12.5 µg/mL (≈ 20.2 µM); in test [6], 1.56 µg/mL (≈ 2.52 µM). Also, the MIC in [7] was found to be 3.13 µg/mL (≈ 5.06 µM); in test [8], 0.19 µg/mL (≈ 0.307 µM); in test [9] it was 6.25 µg/mL (≈ 10.1 µM); in test [10], 0.09 µg/mL (≈ 0.145 µM); in test [11], 0.39 µg/mL (≈ 0.63 µM); in test [12] it was 0.09 µg/mL (≈ 0.145 µM).

Take `Cc1cc(O)c(C(=O)NC(C(=O)NC2C(=O)N3C(C(=O)O)=C(CSc4nnnn4C)CSC23)c2cscn2)cn1` (racemic) [Example 8, DL-7-[2-(4-hydroxy-6-methylnicotinamido)-2-(thiazol-4-yl)-acetamido]-3-(1-methyltetrazol-5-yl)thiomethyl-Δ^3-cephem-4-carboxylic acid]: the MIC was found to be 3.13 µg/mL (≈ 5.18 µM) in test [1]; 0.78 µg/mL (≈ 1.29 µM) in test [2]; 25 µg/mL (≈ 41.4 µM) in test [3]; 1.56 µg/mL (≈ 2.58 µM) in test [4]; 12.5 µg/mL (≈ 20.7 µM) in [5]; 1.56 µg/mL (≈ 2.58 µM) in test [6]. The MIC in test [7] was found to be 3.13 µg/mL (≈ 5.18 µM); in test [8] it was 1.56 µg/mL (≈ 2.58 µM); in test [9], 6.25 µg/mL (≈ 10.4 µM); in test [10], 0.78 µg/mL (≈ 1.29 µM); in [11], 0.78 µg/mL (≈ 1.29 µM); in test [12], 1.56 µg/mL (≈ 2.58 µM).

As to `Cn1nnnc1SCC1=C(C(=O)O)N2C(=O)C(NC(=O)C(N)c3csc(N)n3)C2SC1` (stereo not drawn) [Compound A, 7-[2-amino-2-(2-aminothiazol-4-yl)acetamido]-3-(1-methyl-tetrazol-5-yl)thiomethyl-Δ^3-cephem-4-carboxylic acid, reference compound], the MIC was 25 µg/mL (≈ 51.7 µM) in [1]; 6.25 µg/mL (≈ 12.9 µM) in [2]; over 100 µg/mL in test [3]; 12.5 µg/mL (≈ 25.8 µM) in [4]; over 100 µg/mL in [5]; 25 µg/mL (≈ 51.7 µM) in test [6]. The MIC in test [7] is 12.5 µg/mL (≈ 25.8 µM); in [8], 6.25 µg/mL (≈ 12.9 µM); in [9] it was 100 µg/mL (≈ 207 µM); in test [10], 0.78 µg/mL (≈ 1.61 µM); in test [11], 100 µg/mL (≈ 207 µM); in [12], 1.56 µg/mL (≈ 3.23 µM).

Consider `CC(=O)OCC1=C(C(=O)O)N2C(=O)C(NC(=O)C(N)c3csc(N)n3)C2SC1` (stereo not drawn) [Compound B, 7-[2-amino-2-(2-aminothiazol-4-yl)acetamido]cephalosporanic acid, reference compound], for which the MIC in test [1] was 3.13 µg/mL (≈ 7.32 µM); in test [2], 1.56 µg/mL (≈ 3.65 µM); in [3] it was over 100 µg/mL; in test [4], 3.13 µg/mL (≈ 7.32 µM); in test [5], over 100 µg/mL; in test [6] it was 3.13 µg/mL (≈ 7.32 µM). The MIC is 1.56 µg/mL (≈ 3.65 µM) in test [7]; 3.13 µg/mL (≈ 7.32 µM) in test [8]; 12.5 µg/mL (≈ 29.2 µM) in test [9]; 0.78 µg/mL (≈ 1.82 µM) in [10]; over 100 µg/mL in [11]; 1.56 µg/mL (≈ 3.65 µM) in [12].
